Measurements published in publication PMC11816990, “New Terpenoids and Lignans from Phyllanthus acidus Fruits with Antioxidant Activity” (Foods, 2025).

Assays:
[1] = ABTS+ radical scavenging test; format: biochemical; details: for Inhibition Rate (%): ABTS^+ inhibition, Concentration 250 μM
Method: The ABTS^+ radical scavenging test was conducted as reported previously, and was slightly modified. Specifically, the solvent was replaced with DMSO due to the high volatility of 80% methanol. Trolox was used as positive control. The scavenging activities of phenolic compounds 3, 4, and 10–17 were calculated based on the percentage of ABTS^+ radical scavenged using the equation:Inhibition rate (%) = (A blank − A sample)/A blank
IC50 values were calculated according to the Reed and Muench method.

[2] = tested on: five tumor cell lines; parameters: method as in PMID 17315965; details: 40 μM; compound from Aspidopterys obcordate; cited from earlier work
[3] = tested on: HONE; parameters: method as in doi:10.1016/j.tet.2021.132224; details: compounds derived from Phyllanthus acidus; cited from earlier work
[4] = tested on: A549; parameters: method as in doi:10.1016/j.tet.2021.132224; details: compounds derived from Phyllanthus acidus; cited from earlier work
[5] = tested on: ECA109; parameters: method as in doi:10.1016/j.tetlet.2013.06.082; details: compound isolated from Phyllanthus flexuosus; cited from earlier work
[6] = tested on: Hela cells; parameters: method as in doi:10.1016/j.tet.2021.132224; details: compounds derived from Phyllanthus acidus; cited from earlier work
[7] = compound from Liriope muscari and Senecio scandens, versus Vitamin C; cited from earlier work
[8] = parameters: method as in PMID 22158590; details: compound from Cordia sinensis, versus BHA; cited from earlier work

Structure (SMILES)	Inhibition Rate (%) [1] [%]	IC50 ([1]; ABTS^+ radical scavenging) [µM]	IC50 ([1]; Table S1, ABTS+ inhibition) [µM]	further results
COc1cc(CCCOC(C)=O)cc2c1O[C@@H](c1ccc(O)cc1)[C@@H]2CO [Compound 3, 3-[(2R,3S)-2-(4-hydroxyphenyl)-3-(hydroxymethyl)-7-methoxy-2,3-dihydro-1-benzofuran-5-yl]propyl acetate]	31.16 ± 0.38	–	–	–
CC(=O)OCCCc1ccc2c(c1)[C@H](CO)[C@@H](c1ccc(O)cc1)O2 [Compound 4, 3-[(2S,3R)-2-(4-hydroxyphenyl)-3-(hydroxymethyl)-2,3-dihydro-1-benzofuran-5-yl] propyl acetate]	23.71 ± 0.37	–	–	–
C=Cc1c(C)c(O)cc2c1CC[C@@H]1C(C)(C)[C@H](O)C(=O)C[C@@]21C [Compound 5, aspidoptoid D]	–	–	–	cytotoxic activity against five tumor cell lines [2]: no significant cytotoxic activity
C=Cc1c(C)c(O)cc2c1CC[C@@H]1C(C)(C)[C@H](O)[C@H](O)C[C@@]21C [Compound 6, cleistanthol]	–	–	–	cytotoxic activity against HONE [3]: weaker cytotoxic activity; cytotoxic activity against A549 [4]: weaker cytotoxic activity; cytotoxic activity against ECA109 [5]: weak cytotoxic activity; cytotoxic activity against Hela cells [6]: weaker cytotoxic activity
C=Cc1c(C)c(O)cc2c1CC[C@@H]1C(C)(C)[C@H](O)CC[C@@]21C [Compound 7, spruceanol]	–	–	–	cytotoxic activity against HONE [3]: weaker cytotoxic activity; cytotoxic activity against A549 [4]: weaker cytotoxic activity; cytotoxic activity against Hela cells [6]: weaker cytotoxic activity
COc1cc([C@H]2Oc3c(OC)cc(CCCOC(C)=O)cc3[C@@H]2CO)ccc1O [Compound 10, 3-[(2S,3R)-2-(4-hydroxy-3-methoxyphenyl)-3-(hydroxymethyl)-7-methoxy-2,3-dihydro-1-benzofuran-5-yl]propyl acetate]	46.46 ± 0.83	348 ± 12.2	348 ± 12.2	–
COc1cc([C@H]2OC[C@@H]3[C@H]2CO[C@H]3c2ccc(O)c(OC)c2)ccc1O [Compound 12, (+) epipinoresinol]	49.51 ± 1.60	387 ± 8	387 ± 8.03	–
COc1cc([C@@H]2OC[C@H]3[C@@H]2CO[C@H]3c2ccc(O)c(OC)c2)ccc1O [Compound 13, (-)-pinoresinol]	60.12 ± 0.19	204 ± 4.7	204 ± 4.66	antioxidant activities [7]: comparable to that of Vitamin C
COc1cc(C(O)C(CO)Oc2ccc(CCCOC3OC(CO)C(O)C(O)C3O)cc2OC)ccc1O [Compound 14, 4,7,9-trihydroxy-3,3′-dimethoxy-8-O-4′-neolignan-9′-O-β-D-glucopyranoside]	39.02 ± 1.35	362 ± 8.4	362 ± 8.39	–
O=C(O)/C=C/c1ccc(O)c(O)c1 [Compound 15, trans-caffeic acid]	49.40 ± 0.72	232.9 ± 1.9	233 ± 1.92	DPPH radical scavenging activity [8]: better DPPH radical scavenging activity than BHA
Cc1c(C)c2c(c(C)c1O)CCC(C)(C(=O)O)O2 (stereo not drawn) [Trolox, reference compound]	57.26 ± 1.38	176 ± 2.1	176 ± 2.07	–
